Assay results reported in EP1140110B1, “CLATHRATES OF DEHYDROEPIANDROSTERONE AND CORRESPONDING PHARMACEUTICAL COMPOSITIONS” (Euphar Group S.R.L., priority 1998, dated 2000).

Legend:
[1] = Kinetics and metabolism of exogenous DHEA (100 mg single oral dose, young and elderly male subjects); type: in vivo; conditions: 100 mg DHEA single oral dose
Experimental: This first part of the experimentation was carried out with the purpose of verifying the kinetics and processes of sulfoconjugation and bioconversion of DHEA as such administered to male subjects. The said subjects were divided into two groups according to age: one group of 7 young subjects aged between 24 and 32, and one group of 10 elderly subjects, aged between 67 and 86. Each one of these subjects was administered 100 mg of DHEA in a single dose by oral route. At 0.5, 1, 2, 3, 4, 6, 9,12 and 24 hours from administration, the blood levels of DHEA, DHEA sulphate, total testosterone and 17-β-estradiol were determined. The evaluations were carried out using the parameter of the maximum delta (maximum peak reached, from which the basal values were subtracted) and the parameter of the area under the curve (triangulation system).

[2] = general statement in prior art section; cited from earlier work

C[C@]12CC[C@H](O)CC1=CC[C@@H]1[C@@H]2CC[C@]2(C)C(=O)CC[C@@H]12 [DHEA, dehydroepiandrosterone]
DHEA blood level response to administration, elderly versus young subjects [1]: significantly greater in the elderly subjects
DHEA sulphate blood level response to administration, elderly versus young subjects [1]: significantly greater in the elderly subjects
molar ratio between DHEA sulphate and DHEA in the response-to-administration curves, young versus elderly [1]: did not show any significant differences
time of DHEA sulphate blood level peak from administration ([1]; both groups (young and elderly)): approximately two
blood levels of 17-β-estradiol versus placebo ([1]; compared with the testosterone finding (evident only in elderly subjects)): the same phenomenon occurred
difference in profile of the testosterone levels versus placebo ([1]; elderly subjects, two-way ANOVA): statistically evident
profile of the testosterone levels versus placebo ([1]; young subjects): did not undergo any substantial differences
solubility in water [2]: practically insoluble in water
